Data taken from PubChem BioAssay AID1963851 (Molecular Pharmacology Branch, DTP, NCI, 2024).

Test system: 188146-221-R-J1-PDC complex spheroid viability
Assay: Anticancer human tumor 188146-221-R-J1-PDC patient-derived colon adenocarcinoma cell line growth inhibition [POLQ]
Settings: for IC50: curve of first compound; for viability, T/C: stronger effect = lower value; active = viability on the fitted dose curve at most 10% of control; inactive = the rest
Summary of the method: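 Three-cell-type spheroids modelling solid tumor plus stroma served as the readout system; POL inhibitors were tested individually and in combination, concentration ranges set by clinical Cmax where known.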

[1] = second compound 0.0316 µM, first compound 0.0316 µM
[2] = second compound 0.0316 µM, first compound 0.1 µM
[3] = second compound 0.0316 µM, first compound 0.316 µM
[4] = second compound 0.0316 µM, first compound 1 µM
[5] = second compound 0.0316 µM, first compound 3.16 µM
[6] = second compound 0.0316 µM, first compound 10 µM
[7] = second compound 0.1 µM, first compound 0.0316 µM
[8] = second compound 0.1 µM, first compound 0.1 µM
[9] = second compound 0.1 µM, first compound 0.316 µM
[10] = second compound 0.1 µM, first compound 1 µM
[11] = second compound 0.1 µM, first compound 3.16 µM
[12] = second compound 0.1 µM, first compound 10 µM
[13] = second compound 0.316 µM, first compound 0.0316 µM
[14] = second compound 0.316 µM, first compound 0.1 µM
[15] = second compound 0.316 µM, first compound 0.316 µM
[16] = second compound 0.316 µM, first compound 1 µM
[17] = second compound 0.316 µM, first compound 3.16 µM
[18] = second compound 0.316 µM, first compound 10 µM
[19] = second compound 1 µM, first compound 0.0316 µM
[20] = second compound 1 µM, first compound 0.1 µM
[21] = second compound 1 µM, first compound 0.316 µM
[22] = second compound 1 µM, first compound 1 µM
[23] = second compound 1 µM, first compound 3.16 µM
[24] = second compound 1 µM, first compound 10 µM
[25] = second compound 3.16 µM, first compound 0.0316 µM
[26] = second compound 3.16 µM, first compound 0.1 µM
[27] = second compound 3.16 µM, first compound 0.316 µM
[28] = second compound 3.16 µM, first compound 1 µM
[29] = second compound 3.16 µM, first compound 3.16 µM
[30] = second compound 3.16 µM, first compound 10 µM
[31] = second compound 10 µM, first compound 0.0316 µM
[32] = second compound 10 µM, first compound 0.1 µM
[33] = second compound 10 µM, first compound 0.316 µM
[34] = second compound 10 µM, first compound 1 µM
[35] = second compound 10 µM, first compound 3.16 µM
[36] = second compound 10 µM, first compound 10 µM
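Note: spheroids exposed to compounds for seven days.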
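Throughout, for viability, T/C: 100% = DMSO vehicle control viability.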

CC1COCCN1c1cc(-c2ccnn2C)c2ccnc(-c3ccn[nH]3)c2n1 (centres undefined) + COC1C(OC(N)=O)C(O)C(Oc2ccc3c(O)c(NC(=O)c4ccc(O)c(CC=C(C)C)c4)c(=O)oc3c2C)OC1(C)C
193 nM: IC50 (second compound 0.316 µM)
207 nM: IC50 (second compound 0.0316 µM)
204 nM: IC50 (second compound 3.16 µM)
175 nM: IC50 (second compound 0.1 µM)
252 nM: IC50 (second compound 1 µM)
inactive: viability, T/C [1] 81.5% | viability, T/C [2] 67.3% | viability, T/C [3] 39.3% | viability, T/C [4] 23.3% | viability, T/C [5] 16.3% | viability, T/C [6] 14% | viability, T/C [7] 94.2% | viability, T/C [8] 57.8% | viability, T/C [9] 44.5% | viability, T/C [10] 21.3% | viability, T/C [11] 18.1% | viability, T/C [12] 14.1% | viability, T/C [13] 78.2% | viability, T/C [14] 66.3% | viability, T/C [15] 37.2% | viability, T/C [16] 22.4% | viability, T/C [17] 17.2% | viability, T/C [18] 13.3% | viability, T/C [19] 83.3% | viability, T/C [20] 74.2% | viability, T/C [21] 43.3% | viability, T/C [22] 22.9% | viability, T/C [23] 16.9% | viability, T/C [24] 13.2% | viability, T/C [25] 85.5% | viability, T/C [26] 61.6% | viability, T/C [27] 46.2% | viability, T/C [28] 19.4% | viability, T/C [29] 18.3% | viability, T/C [30] 14.1% | viability, T/C [31] 79.9% | viability, T/C [32] 54.5% | viability, T/C [33] 44.6% | viability, T/C [34] 19.9% | viability, T/C [35] 16.7% | viability, T/C [36] 17%
159 nM: IC50 (second compound 10 µM)

CC1COCCN1c1cc(C2(S(C)(=N)=O)CC2)nc(-c2ccnc3[nH]ccc23)n1 (centres undefined) + COC1C(OC(N)=O)C(O)C(Oc2ccc3c(O)c(NC(=O)c4ccc(O)c(CC=C(C)C)c4)c(=O)oc3c2C)OC1(C)C
4040 nM: IC50 (second compound 0.1 µM)
inactive: viability, T/C [1] 102% | viability, T/C [2] 95.8% | viability, T/C [3] 98.7% | viability, T/C [4] 94.2% | viability, T/C [5] 58.6% | viability, T/C [6] 23.6% | viability, T/C [7] 114% | viability, T/C [8] 100% | viability, T/C [9] 90.5% | viability, T/C [10] 72.5% | viability, T/C [11] 62.2% | viability, T/C [12] 26.8% | viability, T/C [13] 96.2% | viability, T/C [14] 97.3% | viability, T/C [15] 94.7% | viability, T/C [16] 84.8% | viability, T/C [17] 56.4% | viability, T/C [18] 27% | viability, T/C [19] 97.1% | viability, T/C [20] 104% | viability, T/C [21] 88.6% | viability, T/C [22] 87.1% | viability, T/C [23] 61.2% | viability, T/C [24] 23.9% | viability, T/C [25] 101% | viability, T/C [26] 100% | viability, T/C [27] 84.2% | viability, T/C [28] 69.4% | viability, T/C [29] 54% | viability, T/C [30] 26.8% | viability, T/C [31] 102% | viability, T/C [32] 88.8% | viability, T/C [33] 103% | viability, T/C [34] 74.5% | viability, T/C [35] 51.9% | viability, T/C [36] 24%
4050 nM: IC50 (second compound 0.316 µM)
3450 nM: IC50 (second compound 3.16 µM)
4530 nM: IC50 (second compound 1 µM)
3160 nM: IC50 (second compound 10 µM)
4200 nM: IC50 (second compound 0.0316 µM)
